Measurements: patent US8129355B2, “Ketone ligands for modulating the expression of exogenous genes via an ecdysone receptor complex” (priority 2002, dated 2012)
pEC50: −log10 of the molar value.

Columns and labels:
[1] = molecular target: T1, GAL4 DBD (1-147)-CfEcR(DEF)/VP16AD-βRXREF-LmUSPEF (Choristoneura fumiferana, UniProt O77240); experiment: 27-63 assay: luciferase reporter gene expression in stable CHO cell clone 27-63; settings: for Fold Induction Average, 27-63 Assay (33 μM): single dose 33 μM, RLU ligand treated / RLU DMSO treated cells; for 27-63 Rel Max FI: maximum fold induction at any concentration relative to that of GS-E ligand; for CC50: read-out: 27-63 LC50, average, dose response, three-parameter logistic model; for fold induction at 33 µM: CHO, read-out: Fold Induction Average, 27-63 Assay (33 μM)
T1 sequence (O77240 191-513): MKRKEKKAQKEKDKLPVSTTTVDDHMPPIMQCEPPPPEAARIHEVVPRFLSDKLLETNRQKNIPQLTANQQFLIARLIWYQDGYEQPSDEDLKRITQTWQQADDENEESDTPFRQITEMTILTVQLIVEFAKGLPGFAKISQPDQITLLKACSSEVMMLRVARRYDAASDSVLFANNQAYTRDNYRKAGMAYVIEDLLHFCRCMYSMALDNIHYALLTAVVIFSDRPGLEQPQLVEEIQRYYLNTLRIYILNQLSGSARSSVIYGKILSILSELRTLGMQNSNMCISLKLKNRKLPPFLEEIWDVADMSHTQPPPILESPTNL
T1 sequence (P28702 296-455 partner limits assumed): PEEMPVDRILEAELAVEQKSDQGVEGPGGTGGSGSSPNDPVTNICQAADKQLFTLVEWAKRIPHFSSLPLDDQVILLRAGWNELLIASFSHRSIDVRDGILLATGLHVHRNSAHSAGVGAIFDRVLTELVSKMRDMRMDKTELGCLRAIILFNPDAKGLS
Summary of the method: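 CHO clone stably expressing GAL4 DBD-CfEcR(DEF) and VP16AD-HsRXRβ/LmUSP EF chimera plus a 5XGAL4RE-luciferase reporter; ligands given at 8 concentrations (33 μM to 0.01 μM), luminescence read 48 h after treatment. Fold induction versus DMSO cells; BC50 from three-parameter logistic fit.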

[2] = molecular target: T2, GAL4 DBD-CfEcR(DEF)/VP16AD-MmRXRE (Choristoneura fumiferana, UniProt O77240); experiment: cell-based; settings: for fold induction at 33 µM: CHO, read-out: Fold Induction Average, 13B3 Assay (33 μM); for 13B3 Rel Max FI: maximum fold induction at any concentration relative to that of GS-E ligand
T2 sequence (O77240 1-513): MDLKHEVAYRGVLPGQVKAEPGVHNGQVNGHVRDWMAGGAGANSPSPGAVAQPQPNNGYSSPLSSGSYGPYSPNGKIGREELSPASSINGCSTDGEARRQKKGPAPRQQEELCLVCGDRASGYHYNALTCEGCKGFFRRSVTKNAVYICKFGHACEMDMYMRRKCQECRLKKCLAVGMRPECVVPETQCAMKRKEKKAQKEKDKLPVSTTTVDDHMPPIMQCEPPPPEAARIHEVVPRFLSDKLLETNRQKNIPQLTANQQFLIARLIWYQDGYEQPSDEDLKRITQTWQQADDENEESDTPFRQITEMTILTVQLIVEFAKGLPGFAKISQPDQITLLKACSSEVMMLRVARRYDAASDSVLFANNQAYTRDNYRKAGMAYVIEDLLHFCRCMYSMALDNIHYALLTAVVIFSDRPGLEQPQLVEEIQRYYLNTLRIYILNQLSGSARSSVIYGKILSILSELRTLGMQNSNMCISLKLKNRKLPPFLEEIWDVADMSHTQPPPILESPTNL
Summary of the method: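 Stable CHO clone 13B3 expressing GAL4 DBD-CfEcR(DEF) and VP16AD-mouse RXR(DE) with GAL4 RE-luciferase reporter. Ligands tested at 8 concentrations, 33–0.01 μM; luciferase read 48 h after treatment. Fold induction versus DMSO; BC50 from three-parameter logistic fit.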

Row | SMILES | Fold Induction Average, 27-63 Assay (33 μM) [1] | 27-63 Rel Max FI [1] | CC50 [1] [µM] | pEC50 [2] | fold induction at 33 µM [2] | 13B3 Rel Max FI [2] | fold induction at 33 µM [1]
1 | CCOC(=O)C(=O)N1CCCC(NC(=O)c2cccc(OC)c2C)(C(=O)c2cc(C)cc(C)c2)C1 (racemic) [Example 154] | 2 |  |  |  |  |  | 
2 | COC(=O)CN1CCCC(NC(=O)c2cccc(OC)c2C)(C(=O)c2cc(C)cc(C)c2)C1 (racemic) [Example 156] | 3 | 0.00 | > 33 |  |  |  | 
3 | COc1cccc(C(=O)C2(NC(=O)c3cccc(OC)c3C)CCCCC2)c1 [Example 4] |  | 1.06 | 4.28 | 5.46 | 45 | 0.64 | 
4 | COc1cccc(C(=O)NC2(C(=O)c3cccc(C)c3)CCCCC2)c1C [Example 7] |  | 0.77 | 3.52 | 5.17 | 3100 | 0.55 | 
5 | COc1cccc(C(=O)NC2(C(=O)c3cc(C)cc(C)c3)CCCC2)c1C [Example 10] |  | 0.86 | 1.91 | 5.49 | 32700 | 0.71 | 
6 | COc1cccc(C(=O)NC2(C(=O)c3cc(C)cc(C)c3)CCCCC2)c1C [Example 11] |  | 0.97 | 1.43 | 5.74 | 94700 | 1.15 | 
7 | COc1cccc(C(=O)NC(C)(Cc2ccccc2)C(=O)c2cc(C)cc(C)c2)c1C (stereo not drawn) [Example 12] |  | 0.00 | > 33 | < 4.48 | 72 | 0.00 | 
8 | COc1cccc(C(=O)NC2(C(=O)c3cc(C)cc(C)c3)CC2)c1C [Example 13] |  | 0.09 | > 33 | < 4.48 | 3 | 0.00 | 
9 | COc1cccc(C(=O)NC2(C(=O)c3cc(C)cc(C)c3)CCC2)c1C [Example 14] |  | 0.89 | ~10 | 5.18 | 1024 | 0.33 | 
10 | COc1cccc(C(=O)NC2(C(=O)c3ccc(C)cc3)CCCCC2)c1C [Example 15] |  | 0.87 | 6.18 | 5.39 | 371 | 0.09 | 
11 | COc1cccc(C(=O)NC2(C(=O)c3ccc(F)c(C)c3)CCCC2)c1C [Example 17] |  | 0.40 | ~5.5 | 5.35 | 1190 | 0.01 | 
12 | COc1cccc(C(=O)NC2(C(=O)c3ccc(F)c(C)c3)CCCCC2)c1C [Example 18] |  | 0.53 | 3.27 | 5.40 | 50200 | 0.29 | 
13 | COc1cccc(C(=O)NC(C)(C(=O)c2cc(C)cc(C)c2)C(C)C)c1C (stereo not drawn) [Example 20] |  | 0.71 | 2.56 | 5.40 |  | 0.92 | 
14 | CCc1c(OC)cccc1C(=O)NC1(C(=O)c2ccccc2)CCCC1 [Example 21] |  | 0.09 | > 33 | < 4.48 | 2 | 0.00 | 
15 | CCc1c(C(=O)NC2(C(=O)c3ccccc3)CCCC2)ccc2c1OCCO2 [Example 22] |  | 0.60 | 10.8 | < 4.48 | 4 | 0.00 | 
16 | COc1cccc(C(=O)NC2(C(=O)c3cccc(C)c3)CCOCC2)c1C [Example 25] |  | 0.00 | > 33 | < 4.48 | 117 | 0.00 | 
17 | COc1cccc(C(=O)NC2(C(=O)c3cccc(C)c3)CCSCC2)c1C [Example 26] |  | 0.83 | 11 | ~4.70 |  | 0.11 | 
18 | COc1cccc(C(=O)NC2(C(=O)c3cc(C)cc(C)c3)CCOCC2)c1C [Example 27] |  | 0.96 | 10 | ~4.70 | 31600 | 0.36 | 2740
19 | COc1cccc(C(=O)NC2(C(=O)c3cc(C)cc(C)c3)CCSCC2)c1C [Example 28] |  | 0.85 | 1.8 | 5.49 | 3180 | 0.74 | 
20 | COc1cccc(C(=O)NC2(C(=O)c3cc(C)cc(C)c3)CCC3(CC2)OCCO3)c1C [Example 29] |  | 0.00 | > 33 | < 4.48 | 5 | 0.00 | 

Row | SMILES | Fold Induction Average, 27-63 Assay (33 μM) [1] | 27-63 Rel Max FI [1] | CC50 [1] [µM] | pEC50 [2] | fold induction at 33 µM [2] | 13B3 Rel Max FI [2] | fold induction at 33 µM [1]
21 | COc1ccccc1C(=O)C(C)(NC(=O)c1cccc(OC)c1C)C(C)C (stereo not drawn) [Example 30] |  | 0.03 | > 33 | < 4.48 | 133 | 0.00 | 
22 | COc1cccc(C(=O)NC(C)(C(=O)c2cccc(C)c2)C(C)C)c1C (stereo not drawn) [Example 31] |  | 0.61 | ~15 | < 4.48 | 1000 | 0.08 | 
23 | COc1cccc(C(=O)C(C)(NC(=O)c2cccc(OC)c2C)C(C)C)c1 (stereo not drawn) [Example 32] |  | 0.01 | > 33 | < 4.48 | 96 | 0.00 | 
24 | COc1cccc(C(=O)NC(C)(C(=O)c2ccc(C)cc2)C(C)C)c1C (stereo not drawn) [Example 33] |  | 0.00 | > 33 | < 4.48 | 78 | 0.00 | 
25 | COc1cccc(C(=O)NC(C)(C(=O)c2ccccc2)C(C)C)c1C (stereo not drawn) [Example 34] |  | 0.00 | > 33 | < 4.48 | 6 | 0.00 | 
26 | COc1ccccc1C(=O)C1(NC(=O)c2cccc(OC)c2C)CCCCCC1 [Example 70] |  | 0.66 | 3.36 |  |  |  | 
27 | COc1cccc(C(=O)NC2(C(=O)c3cc(C)cc(C)c3)CCCCCC2)c1C [Example 71] |  | 0.88 | 2.97 |  |  |  | 
28 | COc1ccccc1C(=O)C(C)(NC(=O)c1cccc(OC)c1C)c1ccc(F)cc1 (stereo not drawn) [Example 72] | 1 |  |  |  |  |  | 
29 | COc1ccccc1C(=O)C(C)(C)NC(=O)c1cccc(OC)c1C [Example 74] | 9 |  |  |  |  |  | 
30 | COc1cccc(C(=O)NC(C)(C)C(=O)c2cc(C)cc(C)c2)c1C [Example 75] |  | 0.29 | 42 |  |  |  | 
31 | COc1cccc(C(=O)NC(C)(C)C(=O)c2ccccc2)c1C [Example 76] |  | 0.00 | > 33 |  |  |  | 
32 | CCC(CC)(NC(=O)c1cccc(OC)c1C)C(=O)c1ccc(C)cc1 [Example 77] |  | 0.00 | > 33 |  |  |  | 
33 | CCC(CC)(NC(=O)c1cccc(OC)c1C)C(=O)c1ccccc1 [Example 78] |  | 0.41 | 6.54 |  |  |  | 
34 | COc1cccc(C(=O)NC2(C(=O)c3ccc(C)cc3)CCCC2)c1C [Example 79] |  | 0.32 | 4.38 |  |  |  | 
35 | O=C(NC1(C(=O)c2ccccc2)CCCC1)c1ccccc1 [Example 139] |  | 0.00 | > 33 |  |  |  | 
36 | COc1cccc(C(=O)NC2(C(=O)c3ccccc3)CCCC2)c1 [Example 141] |  | 0.00 | > 33 |  |  |  | 
37 | CCc1c(OC)cccc1C(=O)NC1(C(=O)c2cc(C)cc(C)c2)CCCCC1 [Example 143] |  | 0.91 | 1.5 |  |  |  | 
38 | CCc1c(OC)cccc1C(=O)NC1(C(=O)c2cc(C)cc(C)c2)CCCC1 [Example 144] |  | 0.93 | 1.52 |  |  |  | 
39 | COc1cccc(C(=O)NC2(C(=O)c3cc(C)cc(C)c3)CCN(C(C)=O)CC2)c1C [Example 149] |  |  |  |  |  |  | 1
40 | CCNC(=O)N1CCC(NC(=O)c2cccc(OC)c2C)(C(=O)c2cc(C)cc(C)c2)CC1 [Example 157] | 1 |  |  |  |  |  | 
